Laboratory results published in US20060110803A1 (Crucell Holland B.V., priority 2003, published 2006).

tested on: antibodies in control sera (pooled serum of 10 healthy LUMC hospital workers; commercial negative donor pooled serum); type: binding, human

Sequence | recognition by control sera (domains homologous with OC43 spike)
GYHLMSFPQAAPHGVVFLHVTYVPSQERNFTTAPAICHEGKAYFPREG [SEQ ID NO:1247] | recognition by control sera derived from individuals which have not been infected by SARS-CoV

tested on: antibodies in sera of individuals which have been and/or are infected by SARS-CoV (SARS-green, SARS-yellow, 1a, 1b, 2, 6, 37, 62, London); type: binding, human

Sequence | recognition by sera of SARS-CoV infected individuals (domains homologous with OC43 spike) | recognition by sera of SARS-CoV infected individuals, looped/cyclic form | recognition by sera of SARS-CoV infected individuals, linear form
GYHLMSFPQAAPHGVVFLHVTYVPSQERNFTTAPAICHEGKAYFPREG [SEQ ID NO:1247] | recognition by sera derived from individuals which have been and/or are still infected by SARS-CoV | – | –
KLQDVVNQNAQALNT [SEQ ID NO:957] | – | recognized in looped/cyclic form | –
LTSGSDLDRCTTFDD [SEQ ID NO:49] | – | recognized in looped/cyclic form | –
ALNTLVKQLSSNFGA [SEQ ID NO:968] | – | recognized in looped/cyclic form | –
GSDLDRCTTFDDVQA [SEQ ID NO:52] | – | recognized in looped/cyclic form | –
FIFLLFLTLTSGSDL [SEQ ID NO:41] | – | recognized in looped/cyclic form | –
QKFNGLTVLPPLLTD [SEQ ID NO:863] | – | recognized in looped/cyclic form | –
TEVMPVSMAKTSVDC [SEQ ID NO:734] | – | recognized in looped/cyclic form | –
GKLQDVVNQNAQALN [SEQ ID NO:956] | – | recognized in looped/cyclic form | –
ALGKLQDVVNQNAQA [SEQ ID NO:954] | – | recognized in looped/cyclic form | –
KYFKNHTSPDVDLGD [SEQ ID NO:1150] | – | recognized in looped/cyclic form | –
TVYDPLQPELDSFKE [SEQ ID NO:1134] | – | recognized in looped/cyclic form | –
PFSPDGKPCTPPALN [SEQ ID NO:487] | – | – | recognized in linear form
TSSMRGVYYPDEIFR [SEQ ID NO:73] | – | recognized in looped/cyclic form | –
QDVVNQNAQALNTLV [SEQ ID NO:959] | – | recognized in looped/cyclic form | –
VAKNLNESLIDLQEL [SEQ ID NO:1185] | – | recognized in looped/cyclic form | –
TSGSDLDRCTTFDDV [SEQ ID NO:50] | – | recognized in looped/cyclic form | –
ATAGWTFGAGAALQI [SEQ ID NO:892] | – | – | recognized in linear form
NEVAKNLNESLIDLQ [SEQ ID NO:1183] | – | recognized in looped/cyclic form | –
AQALNTLVKQLSSNF [SEQ ID NO:966] | – | recognized in looped/cyclic form | –
SGTATAGWTFGAGAA [SEQ ID NO:889] | – | – | recognized in linear form
QPELDSFKEELDKYF [SEQ ID NO:1140] | – | recognized in looped/cyclic form | –
QALNTLVKQLSSNFG [SEQ ID NO:967] | – | recognized in looped/cyclic form | –
LGKLQDVVNQNAQAL [SEQ ID NO:955] | – | recognized in looped/cyclic form | –

Sequence | recognition by sera of SARS-CoV infected individuals (domains homologous with OC43 spike) | recognition by sera of SARS-CoV infected individuals, looped/cyclic form | recognition by sera of SARS-CoV infected individuals, linear form
YFKNHTSPDVDLGDI [SEQ ID NO:1151] | – | recognized in looped/cyclic form | –
SLTTTSTALGKLQDV [SEQ ID NO:947] | – | recognized in looped/cyclic form | –
DVVNQNAQALNTLVK [SEQ ID NO:960] | – | recognized in looped/cyclic form | –
KNLNESLIDLQELGK [SEQ ID NO:1187] | – | recognized in looped/cyclic form | –
FKNHTSPDVDLGDIS [SEQ ID NO:1152] | – | recognized in looped/cyclic form | –
SVDCNMYICGDSTEC [SEQ ID NO:745] | – | – | recognized in linear form
ELDSFKEELDKYFKN [SEQ ID NO:1142] | – | recognized in looped/cyclic form | –
VYYPDEIFRSDTLYL [SEQ ID NO:79] | – | recognized in looped/cyclic form | –
TTSTALGKLQDVVNQ [SEQ ID NO:950] | – | recognized in looped/cyclic form | –
QNAQALNTLVKQLSS [SEQ ID NO:964] | – | recognized in looped/cyclic form | –
WYVWLGFIAGLIAIV [SEQ ID NO:1210] | – | recognized in looped/cyclic form | –
LTTTSTALGKLQDVV [SEQ ID NO:948] | – | recognized in looped/cyclic form | –
NLNESLIDLQELGKY [SEQ ID NO:1188] | – | recognized in looped/cyclic form | –
FNGLTVLPPLLTDDM [SEQ ID NO:865] | – | recognized in looped/cyclic form | –
NAQALNTLVKQLSSN [SEQ ID NO:965] | – | recognized in looped/cyclic form | –
LDKYFKNHTSPDVDL [SEQ ID NO:1148] | – | recognized in looped/cyclic form | –
RLNEVAKNLNESLID [SEQ ID NO:1181] | – | recognized in looped/cyclic form | –
VPFSPDGKPCTPPAL [SEQ ID NO:486] | – | – | recognized in linear form
GFIAGLIAIVMVTIL [SEQ ID NO:1215] | – | recognized in looped/cyclic form | –
SPDGKPCTPPALNCY [SEQ ID NO:489] | – | – | recognized in linear form
TSPDVDLGDISGINA [SEQ ID NO:1156] | – | recognized in looped/cyclic form | –
QHTSSMRGVYYPDEI [SEQ ID NO:71] | – | recognized in looped/cyclic form | –
TSVDCNMYICGDSTE [SEQ ID NO:744] | – | – | recognized in linear form
LTLTSGSDLDRCTTF [SEQ ID NO:47] | – | recognized in looped/cyclic form | –

tested on: antibodies in rabbit serum obtained by immunizing a rabbit with the SARS-CoV strain Frankfurt 1; type: binding

Sequence | recognition by rabbit serum
DDVQAPNYTQHTSSM [SEQ ID NO:62] | recognized by the rabbit serum
PTTFMLKYDENGTIT [SEQ ID NO:287] | recognized by the rabbit serum
SDFTDSVRDPKTSEI [SEQ ID NO:584] | recognized by the rabbit serum
FTDSVRDPKTSEILD [SEQ ID NO:586] | recognized by the rabbit serum
LKYDENGTITDAVDC [SEQ ID NO:292] | recognized by the rabbit serum
CDNPFFAVSKPMGTQ [SEQ ID NO:172] | recognized by the rabbit serum
MLKYDENGTITDAVD [SEQ ID NO:291] | recognized by the rabbit serum
KYDENGTITDAVDCS [SEQ ID NO:293] | recognized by the rabbit serum
GIGYQPYRVVVLSFE [SEQ ID NO:516] | recognized by the rabbit serum
TALGKLQDVVNQNAQ [SEQ ID NO:953] | recognized by the rabbit serum
DSVRDPKTSEILDIS [SEQ ID NO:588] | recognized by the rabbit serum
CTTFDDVQAPNYTQH [SEQ ID NO:58] | recognized by the rabbit serum
QAPNYTQHTSSMRGV [SEQ ID NO:65] | recognized by the rabbit serum
RCTTFDDVQAPNYTQ [SEQ ID NO:57] | recognized by the rabbit serum
TTFDDVQAPNYTQHT [SEQ ID NO:59] | recognized by the rabbit serum
KLQDVVNQNAQALNT [SEQ ID NO:957] | recognized by the rabbit serum
NPFFAVSKPMGTQTH [SEQ ID NO:174] | recognized by the rabbit serum
VQAPNYTQHTSSMRG [SEQ ID NO:64] | recognized by the rabbit serum
GKLQDVVNQNAQALN [SEQ ID NO:956] | recognized by the rabbit serum

Sequence | recognition by rabbit serum
ALGKLQDVVNQNAQA [SEQ ID NO:954] | recognized by the rabbit serum
DFTDSVRDPKTSEIL [SEQ ID NO:585] | recognized by the rabbit serum
TSTALGKLQDVVNQN [SEQ ID NO:951] | recognized by the rabbit serum
DRCTTFDDVQAPNYT [SEQ ID NO:56] | recognized by the rabbit serum
DVQAPNYTQHTSSMR [SEQ ID NO:63] | recognized by the rabbit serum
FMLKYDENGTITDAV [SEQ ID NO:290] | recognized by the rabbit serum
TTFMLKYDENGTITD [SEQ ID NO:288] | recognized by the rabbit serum
LGKLQDVVNQNAQAL [SEQ ID NO:955] | recognized by the rabbit serum
GYQPYRVVVLSFELL [SEQ ID NO:518] | recognized by the rabbit serum
FDDVQAPNYTQHTSS [SEQ ID NO:61] | recognized by the rabbit serum
TTSTALGKLQDVVNQ [SEQ ID NO:950] | recognized by the rabbit serum
STALGKLQDVVNQNA [SEQ ID NO:952] | recognized by the rabbit serum
TFDDVQAPNYTQHTS [SEQ ID NO:60] | recognized by the rabbit serum
IGYQPYRVVVLSFEL [SEQ ID NO:517] | recognized by the rabbit serum
DNPFFAVSKPMGTQT [SEQ ID NO:173] | recognized by the rabbit serum
TDSVRDPKTSEILDI [SEQ ID NO:587] | recognized by the rabbit serum
TFMLKYDENGTITDA [SEQ ID NO:289] | recognized by the rabbit serum
LDRCTTFDDVQAPNY [SEQ ID NO:55] | recognized by the rabbit serum
